Literature values in patent publication US8097707B2, “Compositions and processes for preparing 13-deoxy-anthracyclines” (priority 2004, dated 2012).

Conditions: test systems where doxorubicin is not metabolized appreciably to the 13-dihydro alcohol metabolite (doxorubicinol)

COc1cccc2c1C(=O)c1c(O)c3c(c(O)c1C2=O)C[C@@](O)(C(=O)CO)C[C@@H]3O[C@H]1C[C@H](N)[C@H](O)[C@H](C)O1 [doxorubicin]
cardiotoxic effects: no significant cardiotoxic effects
